Molecular target: T1, β-glucosidase from L. brevis SK3 (Levilactobacillus brevis, UniProt Q03P52)
T1 sequence (Q03P52 1-751): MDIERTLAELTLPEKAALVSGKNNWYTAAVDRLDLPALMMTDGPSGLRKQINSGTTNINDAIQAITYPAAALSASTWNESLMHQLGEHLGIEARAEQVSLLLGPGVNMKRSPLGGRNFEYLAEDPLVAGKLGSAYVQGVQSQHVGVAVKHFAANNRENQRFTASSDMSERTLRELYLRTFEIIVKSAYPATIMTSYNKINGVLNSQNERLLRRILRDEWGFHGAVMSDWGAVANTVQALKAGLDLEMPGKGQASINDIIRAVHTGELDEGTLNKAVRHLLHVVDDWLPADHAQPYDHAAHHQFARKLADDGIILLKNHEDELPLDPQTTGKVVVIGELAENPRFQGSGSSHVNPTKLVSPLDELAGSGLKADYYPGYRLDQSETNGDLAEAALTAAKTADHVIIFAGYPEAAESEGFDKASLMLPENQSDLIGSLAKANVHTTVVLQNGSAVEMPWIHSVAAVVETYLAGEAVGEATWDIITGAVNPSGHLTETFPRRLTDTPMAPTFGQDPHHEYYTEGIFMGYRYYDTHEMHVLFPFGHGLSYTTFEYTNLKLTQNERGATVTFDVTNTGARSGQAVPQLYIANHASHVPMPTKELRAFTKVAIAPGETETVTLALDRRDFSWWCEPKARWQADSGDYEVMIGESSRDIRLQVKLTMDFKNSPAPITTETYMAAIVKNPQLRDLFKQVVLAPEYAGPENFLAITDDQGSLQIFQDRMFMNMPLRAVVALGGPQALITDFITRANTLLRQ
Assay: standard glucosidase assay, p-nitrophenol at […] nm after stop
Type: biochemical
Details: inhibitor, 10 mM pNPβGlc, pH 5.5, 37 °C, 10 min

Relative activity (%) (10000 µM) | Relative activity (%) (200000 µM) | SMILES
14 | – | O=C1O[C@H](CO)[C@@H](O)[C@H](O)[C@H]1O [Glucono-δ-lactone]
– | 59 | OC[C@H]1OC(O)[C@H](O)[C@@H](O)[C@@H]1O (stereo partly drawn) [Glucose]
– | 17 | O=C(O)[C@H](O)[C@@H](O)[C@H](O)[C@H](O)CO [Gluconic acid]

— publication PMC3033209 (Journal of applied microbiology, 2009)
